Results on four compounds are retold here after US11466047B2, “Cyclic di-nucleotide compounds as sting agonists” (Merck Sharp & Dohme Corp., priority 2017, dated 2022).

One may read the EC50 as the concentration needed to bring the measured effect to its halfway point.

One assay deals with full-length WT STING (Homo sapiens (Human), UniProt Q86WV6, H232R). Nature of the assay: 3H-cGAMP filtration binding assay (WT STING). The following applies: competition with tritiated cGAMP ligand, WT STING membrane; read-out: EC50. Here is the method: The ability of compounds to bind STING is quantified by their ability to compete with tritiated cGAMP ligand for human STING receptor membrane using a radioactive filter-binding assay. The binding assay employs STING receptor obtained from Trichoplusia ni cell membranes (T.ni; Expression Systems, cat #94-002F, overexpressing full-length WT STING and tritiated cGAMP ligand.
full-length WT STING, sequence (Q86WV6 whole entry, looked up, stated change not applied): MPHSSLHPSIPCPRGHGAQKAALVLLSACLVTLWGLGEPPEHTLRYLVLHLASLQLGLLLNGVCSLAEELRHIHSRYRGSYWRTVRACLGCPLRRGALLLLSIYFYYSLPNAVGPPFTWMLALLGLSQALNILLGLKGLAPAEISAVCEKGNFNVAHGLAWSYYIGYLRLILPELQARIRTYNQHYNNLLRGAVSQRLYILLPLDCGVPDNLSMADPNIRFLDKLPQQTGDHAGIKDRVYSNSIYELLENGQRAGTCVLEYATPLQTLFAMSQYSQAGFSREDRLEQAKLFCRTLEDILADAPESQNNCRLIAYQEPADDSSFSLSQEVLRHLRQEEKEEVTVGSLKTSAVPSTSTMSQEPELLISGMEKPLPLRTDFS
The basic WT STING filtration assay protocol is as follows:
16 nM of [^3H] c-GAMP ligand was prepared by diluting into assay buffer, and 50 uL of this working stock was manually added to each well of the assay plate. After ligand addition, 2 uL of either titrated test compound, DMSO control (Sigma #276855), or cold cGAMP control was added to the appropriate wells using a BIOMEK FX. The serially titrated compound was prepared on a Hamilton STARPlus CORE in a 96-well plate (Greiner, #651201) using a 1:3 ten-point dose response format. Following compound addition, a 2.2 ug/ml working concentration of STING membrane (SEQ. ID. No. 3) was prepared by diluting concentrated membrane into assay buffer (1×PBS; Invitrogen #SH30028.02) and douncing 7× using a manual tissue homogenizer (Wheaton, #357546). 148 uL of this prepared membrane was then manually added to each well of a 96-well deep-well polypropylene plate (Fisher Scientific, #12-566-121). Compound, ligand, and membrane then incubated for 60 min at RT before the contents of each assay plate were filtered through a 96-well GF/B filter plate (PerkinElmer, #6005250) using a TOMTEC MACH III Cell Harvester equipped with 20 mM HEPES buffer (Fisher Scientific, #BP299500). The filter plates were then dried at 55° C. for 30 min using a pressurized VWR oven before 30 uL of ULTIMA GOLD F scintillate was added to each well. Tritium levels for each reaction well were then measured using a PerkinElmer TopCount plate reader.
(§1) After normalization to controls, the percent activity for each compound concentration was calculated by measuring the amount of remaining radioactivity. The plot of percent activity versus the log of compound concentration was fit with a 4-parameter dose response equation to calculate EC50 values.

In a further assay the test system is THP1 cells. Nature of the assay: IFN-β secretion in THP1 cell culture (5 h). It counts as cell-based, human. The following applies: Homo sapiens, THP-1, 5 h, 30 μM compound, relative to 2′3′-cGAMP at 30 μM, read-out: % Effect at 30 μM relative to 2′3′-cGAMP. The method, then:
The ability of compounds to stimulate the secretion of interferon-beta from THP1 cells was measured using a human IFN-β AlphaLISA kit (Perkin Elmer, Cat. No. AL265F). The basic protocol is as follows:
A Labcyte Echo 550 acoustic dispenser was used to transfer 120 nL of compound dissolved in DMSO into the wells of an empty, sterile 384-well microplate, (Corning, Cat. No. 3712). THP1 cells (American Type Culture Collection, Cat. No. TIB202) previously frozen in Recovery Medium (Life Technologies, Cat. No. 12648-010) were thawed and immediately diluted 10-fold into 37° C. assay medium (RPMI 1640+L-Glutamine & phenol red, Life Technologies, Cat. No. 11875-085; 0.5% heat inactivated fetal bovine serum, Sigma Aldrich, Cat. No. F4135; 1 mM Sodium Pyruvate, Life Technologies, Cat. No. 11360-070; lx non-essential amino acids; Life Technologies, Cat. No. 11140-050). The cell viability and count was ascertained using a Beckman Coulter V-Cell XR cell counter. The cell suspension was centrifuged at 200×g for 5 min at RT. Cells were resuspended to a density of 0.8×10^6/mL in 37° C. assay medium. Subsequent liquid transfers were performed using either a Matrix electronic multichannel pipette or an Agilent Bravo Automated Liquid Handling Platform.
The assay was started by dispensing 40 μL of the previously prepared cell suspension into the wells of the plate containing compounds. After 5 h incubation at 37° C., 5% CO2 in a humidified atmosphere, the plate of cells and compounds was centrifuged at 200×g for 5 min at RT. From each well, 5 μL of supernatant was transferred into corresponding wells of a white 384-well plate (Perkin Elmer, Cat. No. 6005620). To these supernatant-containing wells was added 10 μL of 5× Anti-Analyte Acceptor beads (50 μg/mL of AlphaLISA HiBlock Buffer) and incubated for 30 min at RT while shaking on an orbital plate shaker. To each well was added 10 μL of 5× Biotinylated Antibody Anti-analyte (5 nM in AlphaLISA HiBlock Buffer) and incubated on an orbital plate shaker for 60 min at RT or overnight at 4° C. To each well was added 25 μL of 2×SA-Donor beads (80 μg/mL in AlphaLISA HiBlock Buffer) and incubated for 30-45 min at RT in the dark while shaking on an orbital plate shaker. The plate was then read on a Perkin Elmer Envision (λex=680 nm, λem=570 nm). The percent effect of the AlphaLISA signal at each compound concentration was calculated based on 30 uM cGAMP positive controls and 0.3% DMSO negative controls. The plot of percent effect versus the log of compound concentration was fit with a 4-parameter concentration response equation to calculate EC50 values. The test compounds were tested at concentrations 30000, 10000, 3333, 1111, 370.4, 123.4, 41.2, 13.7, 4.6, and 1.5 nM with 0.3% residual DMSO. The control compound, cGAMP was tested at concentrations 100000, 33333, 11111, 3704, 1235, 412, 137, 46, and 15 nM with 0.3% residual DMSO.
Compounds of the disclosure were evaluated for IFN-β secretion in THP1 cell culture as described above. The following table tabulates the biological data for these compounds as percent activation relative to 2′3′-cGAMP at the 30 μM concentration.

The next assay deals with full-length HAQ STING (Homo sapiens (Human), UniProt Q86WV6, G230A/H232R/R293Q/R71H). Nature of the assay: 3H-cGAMP filtration binding assay (HAQ STING). The following applies: competition with tritiated cGAMP ligand, HAQ STING membrane.
full-length HAQ STING, sequence (Q86WV6 whole entry, looked up, stated change not applied): as above
Excerpt: The ability of compounds to bind STING is quantified by the ability to compete with tritiated cGAMP ligand for human STING receptor membrane using a radioactive filter-binding assay. The binding assay employs STING receptor obtained from Hi-Five cell membranes overexpressing full-length HAQ STING prepared in-house and tritiated cGAMP ligand also purified in-house.
The ability of compounds to bind STING is quantified by their ability to compete with tritiated cGAMP ligand for human STING receptor membrane using a radioactive filter-binding assay. The binding assay employs STING receptor obtained from Trichoplusia ni cell membranes (T.ni; Expression Systems, cat #94-002F, www.expressionsystems.com) overexpressing full-length HAQ STING and tritiated cGAMP ligand.
The basic HAQ STING filtration assay protocol is as follows:
The compounds were serially titrated by the Hamilton STARPlus CORE in a 96-well plate (Greiner, #651201) using a 1:3 ten-point dose response format. After compound preparation, a 2.2 ug/ml working concentration of STING membrane (SEQ. ID. No. 1) was prepared by diluting concentrated membrane into assay buffer (lx PBS; Invitrogen #SH30028.02) and douncing 7× using a manual tissue homogenizer (Wheaton, #357546). 148 uL of prepared membrane was then manually added to each well of a 96-well deep-well polypropylene plate (Fisher Scientific, #12-566-121). Following membrane addition, 2 uL of either titrated test compound, DMSO control (Sigma #276855), or cold cGAMP control was added to the appropriate wells using a BIOMEK FX. Compound and membrane then preincubated for 60 min at RT to allow compound binding to equilibrate. Following equilibration, 8 nM of [^3H]c-GAMP ligand was prepared by diluting into assay buffer, and 50 uL of this working stock was then manually added to each well of the assay plate. Plates were then incubated at RT for 60 min, and the contents of each assay plate were then filtered through a 96-well GF/B filter plate (PerkinElmer, #6005250) using a TOMTEC MACH III Cell Harvester equipped with 20 mM HEPES buffer (Fisher Scientific, #BP299500). The filter plates were then dried at 55° C. for 30 min using a pressurized oven before 30 uL of ULTIMA GOLD F scintillate was added to each well. Tritium levels for each reaction well were then measured using a PerkinElmer TopCount plate reader.
as §1

Consider `Nc1nc2c(ncn2[C@@H]2O[C@@H]3COP(=S)(S)O[C@H]4[C@H]5OC[C@]4(COP(O)(=S)O[C@@H]2[C@H]3F)O[C@H]5n2cnc3c(N)ncnc32)c(=O)[nH]1` (stereo partly drawn) [Example 9, 2-amino-9-[(5R,7R,8S,12aR,14R,15R, 15aS,18S)-14-(6-amino-9H-purin-9-yl)-18-fluoro-10-hydroxy-2-sulfanyl-2,10-disulfidohexahydro-14H-15,12a-(epoxymethano)-5,8-methanofuro[3,2-1][1,3,6,9,11,2,10]pentaoxadiphosphacyclotetradecin-7(12H)-yl]-1,9-dihydro-6H-purin-6-one], for which the values for the EC50 on full-length WT STING and on full-length HAQ STING were 4390 nM and 349 nM, respectively. In addition, in the assay on THP1 cells, the activation at 30 µM is 26%.

Consider `Nc1nc2c(ncn2[C@@H]2S[C@@H]3COP(=S)(S)O[C@H]4[C@H](F)[C@H](n5cnc6c(N)ncnc65)O[C@@H]4COP(O)(=S)O[C@@H]2[C@@H]3O)c(=O)[nH]1` (stereo partly drawn) [Example 16, 2-amino-9-[(5R,7R,8R,12aR,14R,15S,15aR,16S)-14-(6-amino-9H-purin-9-yl)-15-fluoro-10,16-dihydroxy-2-sulfanyl-2,10-disulfidooctahydro-12H-5,8-methanofuro[3,2-l][1,3,9,11,6,2,10]tetraoxathiadiphosphacyclotetradecin-7-yl]-1,9-dihydro-6H-purin-6-one], for which the EC50 worked out at 18 nM on full-length WT STING and 5 nM on full-length HAQ STING. Besides, the activation at 30 µM in the assay with THP1 cells is 107%.

As for `Nc1nc2c(ncn2[C@@H]2S[C@@H]3COP(=S)(S)O[C@H]4[C@H](F)[C@H](n5cnc6c(N)ncnc65)O[C@@H]4COP(=O)(O)O[C@@H]2[C@@H]3O)c(=O)[nH]1` (stereo partly drawn) [Example 20, 2-amino-9-[(5R,7R,8R,12aR,14R,15S,15aR,16S)-14-(6-amino-9H-purin-9-yl)-15-fluoro-10,16-dihydroxy-10-oxido-2-sulfanyl-2-sulfidooctahydro-12H-5,8-methanofuro[3,2-l][1,3,9,11,6,2,10]tetraoxathiadiphosphacyclotetradecin-7-yl]-1,9-dihydro-6H-purin-6-one], the EC50 is 3 nM on full-length WT STING and 1 nM at full-length HAQ STING. Besides, the activation at 30 µM in the assay on THP1 cells was determined as 137%.

Turning to `Nc1nc2c(ncn2[C@@H]2S[C@@H]3COP(=S)(S)O[C@H]4[C@H]5OC[C@]4(COP(=O)(O)O[C@@H]2[C@@H]3O)O[C@H]5n2cnc3c(N)ncnc32)c(=O)[nH]1` (stereo partly drawn) [Example 21, 2-amino-9-[(5R,7R,8R,12aR,14R,15R, 15aS,18S)-14-(6-amino-9H-purin-9-yl)-10,18-dihydroxy-10-oxido-2-sulfanyl-2-sulfidohexahydro-14H-15,12a-(epoxymethano)-5,8-methanofuro[3,2-1][1,3,9,11,6,2,10]tetraoxathiadiphosphacyclotetradecin-7(12H)-yl]-1,9-dihydro-6H-purin-6-one], the EC50 at full-length WT STING was 1550 nM; on full-length HAQ STING, 217 nM. Moreover, the activation at 30 µM with THP1 cells was 45%.
